The values that follow come from paper PMC6996489 (Drug Design, Development and Therapy, 2020).

The target of assay [1] is T1, human recombinant monoamine oxidase B (MAO B) (Homo sapiens, UniProt P27338).
T1 sequence (P27338 1-520): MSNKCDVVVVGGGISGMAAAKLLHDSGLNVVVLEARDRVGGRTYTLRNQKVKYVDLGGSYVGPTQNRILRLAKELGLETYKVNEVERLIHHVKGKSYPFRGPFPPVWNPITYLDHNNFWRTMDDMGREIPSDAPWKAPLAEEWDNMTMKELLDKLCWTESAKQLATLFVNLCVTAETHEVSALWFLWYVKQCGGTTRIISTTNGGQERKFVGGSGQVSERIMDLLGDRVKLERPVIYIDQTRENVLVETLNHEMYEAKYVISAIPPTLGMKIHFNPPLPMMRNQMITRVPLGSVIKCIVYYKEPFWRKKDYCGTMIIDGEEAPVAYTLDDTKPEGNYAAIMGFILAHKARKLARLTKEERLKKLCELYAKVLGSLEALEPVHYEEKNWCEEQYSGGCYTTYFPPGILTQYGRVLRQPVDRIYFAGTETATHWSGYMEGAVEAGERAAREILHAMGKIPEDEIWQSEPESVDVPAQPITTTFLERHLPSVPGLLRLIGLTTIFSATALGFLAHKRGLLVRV
Type of assay: biochemical. The following applies: MAO B vs MAO A.

The target of the next assay is BuChE (Homo sapiens, UniProt P06276). Description: Butyrylcholine esterase inhibition screening. To be noted: concentration of 1 µm. The class given is biochemical.
The next assay has as its target T2, MAO B (Homo sapiens, UniProt P27338).
T2 sequence (P27338 1-520): T1 sequence (P27338 1-520)
The following applies: seven kynuramine concentrations, Lineweaver–Burk plots.

Another assay has as its target AChE (Homo sapiens, UniProt P22303). Description: Acetylcholine esterase inhibition screening. Type of assay: biochemical. The following applies: concentration of 1 µm.

Chain of AChE (P22303 32-614): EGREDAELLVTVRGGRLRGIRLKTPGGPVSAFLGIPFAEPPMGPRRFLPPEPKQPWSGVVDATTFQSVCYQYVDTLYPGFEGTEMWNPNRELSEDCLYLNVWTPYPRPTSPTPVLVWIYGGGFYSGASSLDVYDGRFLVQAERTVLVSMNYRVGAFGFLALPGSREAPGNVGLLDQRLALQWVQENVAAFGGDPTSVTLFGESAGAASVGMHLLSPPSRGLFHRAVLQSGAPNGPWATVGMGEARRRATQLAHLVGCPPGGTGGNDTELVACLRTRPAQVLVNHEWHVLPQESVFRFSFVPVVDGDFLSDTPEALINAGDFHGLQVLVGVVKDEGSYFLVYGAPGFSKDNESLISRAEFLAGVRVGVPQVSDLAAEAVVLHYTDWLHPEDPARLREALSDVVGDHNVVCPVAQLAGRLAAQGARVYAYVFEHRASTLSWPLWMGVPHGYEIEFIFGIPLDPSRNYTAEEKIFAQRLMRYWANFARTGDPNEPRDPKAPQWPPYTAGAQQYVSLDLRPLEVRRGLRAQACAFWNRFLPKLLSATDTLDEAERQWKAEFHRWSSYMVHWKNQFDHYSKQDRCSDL
Chain of BuChE (P06276 29-602): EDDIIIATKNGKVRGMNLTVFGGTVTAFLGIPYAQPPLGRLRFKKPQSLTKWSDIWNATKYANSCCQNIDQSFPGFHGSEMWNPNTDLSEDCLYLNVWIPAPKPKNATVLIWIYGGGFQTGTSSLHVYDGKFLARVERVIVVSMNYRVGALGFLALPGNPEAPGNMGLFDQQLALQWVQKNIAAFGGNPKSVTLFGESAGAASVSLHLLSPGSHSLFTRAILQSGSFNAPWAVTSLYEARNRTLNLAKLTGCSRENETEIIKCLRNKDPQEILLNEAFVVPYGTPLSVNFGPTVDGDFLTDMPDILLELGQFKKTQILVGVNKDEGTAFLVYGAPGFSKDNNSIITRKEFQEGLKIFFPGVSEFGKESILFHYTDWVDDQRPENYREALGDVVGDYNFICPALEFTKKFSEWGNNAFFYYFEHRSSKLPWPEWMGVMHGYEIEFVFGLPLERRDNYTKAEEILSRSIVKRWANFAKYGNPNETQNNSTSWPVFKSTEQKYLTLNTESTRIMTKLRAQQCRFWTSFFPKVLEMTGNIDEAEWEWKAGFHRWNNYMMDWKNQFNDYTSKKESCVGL

Take `O=C(Nc1ccc([N+](=O)[O-])cc1[N+](=O)[O-])c1ccccc1` [Compound 7, N-(2,4-Dinitrophenyl)benzamide]: the “fold lower affinity towards MAO B than MAO A” value in assay [1] was 8.3 fold.
Consider `O=C(Nc1ccc([N+](=O)[O-])cc1[N+](=O)[O-])c1ccc2c(c1)OCO2` [Compound 55, N-(2,4-Dinitrophenyl)benzo[d][1,3]dioxole-5-carboxamide], for which the “inhibition of BuChE at 1 µm” value on BuChE is given as 57±4.5%. For the same compound, the “Type of MAO B inhibition” value at MAO B was “competitive”. In addition, the “inhibition of AChE at 1 µm” value against AChE turned out to be 24±1.8%.
